Reference: patent publication US6794402B2, “Bicyclic cyclohexylamines and their use as NMDA receptor antagonists” (Warner-Lambert Company, priority 2000, dated 2004)
Structures can show the parent of a compound that is named as a salt.

Assays:
[1] = biological target: T1, [3H]ifenprodil binding site, rat forebrain membranes (Rattus norvegicus, UniProt P35439+Q00960); assay: [3H]Ifenprodil binding assay; settings: 4 nM [3H]-ifenprodil, 2 hours at room temperature
T1 construct: membrane fraction was prepared from frozen adult rat forebrains; tissue Zivic-Miller Laboratories, Inc; host or cells: adult rat forebrain, washed buffy coat membrane fraction
T1 sequence (Q00960 27-1482, other chains not shown): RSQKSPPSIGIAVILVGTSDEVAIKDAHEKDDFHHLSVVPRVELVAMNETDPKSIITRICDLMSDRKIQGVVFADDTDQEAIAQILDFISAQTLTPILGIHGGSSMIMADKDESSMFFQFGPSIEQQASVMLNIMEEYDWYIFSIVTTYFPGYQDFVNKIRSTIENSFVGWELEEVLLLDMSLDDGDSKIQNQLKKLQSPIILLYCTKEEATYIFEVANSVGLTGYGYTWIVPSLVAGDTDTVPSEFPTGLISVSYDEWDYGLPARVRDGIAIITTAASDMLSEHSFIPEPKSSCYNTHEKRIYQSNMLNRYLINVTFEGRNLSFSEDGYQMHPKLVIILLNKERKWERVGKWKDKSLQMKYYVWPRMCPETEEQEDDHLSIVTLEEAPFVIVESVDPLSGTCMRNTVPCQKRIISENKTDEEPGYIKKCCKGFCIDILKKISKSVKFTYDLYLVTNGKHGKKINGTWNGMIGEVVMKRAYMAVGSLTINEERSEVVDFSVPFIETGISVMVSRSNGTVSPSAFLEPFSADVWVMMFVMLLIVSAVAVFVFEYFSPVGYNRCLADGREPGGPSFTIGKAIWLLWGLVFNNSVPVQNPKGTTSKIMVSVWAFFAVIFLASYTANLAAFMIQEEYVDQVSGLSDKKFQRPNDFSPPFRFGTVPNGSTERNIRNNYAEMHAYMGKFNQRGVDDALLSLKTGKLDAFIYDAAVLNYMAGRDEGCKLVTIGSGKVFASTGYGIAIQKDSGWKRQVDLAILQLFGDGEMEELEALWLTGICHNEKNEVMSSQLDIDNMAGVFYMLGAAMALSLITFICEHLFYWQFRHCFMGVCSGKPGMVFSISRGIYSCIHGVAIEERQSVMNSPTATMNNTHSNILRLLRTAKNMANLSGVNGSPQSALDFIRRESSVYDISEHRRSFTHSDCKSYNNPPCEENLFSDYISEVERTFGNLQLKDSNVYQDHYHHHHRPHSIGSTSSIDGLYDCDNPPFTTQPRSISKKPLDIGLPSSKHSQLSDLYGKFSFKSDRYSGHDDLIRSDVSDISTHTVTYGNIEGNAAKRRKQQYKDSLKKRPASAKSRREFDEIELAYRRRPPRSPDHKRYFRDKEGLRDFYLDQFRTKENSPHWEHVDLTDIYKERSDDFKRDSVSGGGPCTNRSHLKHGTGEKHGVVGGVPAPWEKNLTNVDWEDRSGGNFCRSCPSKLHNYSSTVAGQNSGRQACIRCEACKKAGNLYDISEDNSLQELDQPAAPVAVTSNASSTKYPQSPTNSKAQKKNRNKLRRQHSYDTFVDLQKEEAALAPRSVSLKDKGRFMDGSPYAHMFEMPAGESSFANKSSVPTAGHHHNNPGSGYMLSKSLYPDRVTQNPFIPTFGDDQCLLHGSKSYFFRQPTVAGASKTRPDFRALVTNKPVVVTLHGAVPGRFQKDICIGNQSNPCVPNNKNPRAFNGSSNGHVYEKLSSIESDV
Procedure: All buffers and reagents used in assay incubations or to dissolve drugs were prepared using water purified through a Milli-Q reverse osmosis system (Millipore Corp, Bedford, Mass.) and treated with UV emissions. Prior to use in the assays, buffers were further filtered through a sterile Corning filtration unit (Corning Glass Works, Corning, N.Y.) containing a 0.2-micron filter. Buffer used to rinse the membranes on the assay filters was prepared with purified water, but was not refiltered and was stored no longer than 5 days. Stock solutions of the drugs (usually 10 mM) were dissolved in 20 mM HEPES-KOH buffer pH 7.4 (assay buffer) with the addition of 1 to 5 μL of glacial AcOH, if needed to keep them in solution. For eliprodil the stock solution was buffered with the addition of 10% DMSO. All subsequent dilutions from stock were made in buffer.
An extensively washed buffy coat membrane fraction was prepared from frozen adult rat forebrains (Zivic-Miller Laboratories, Inc., Zelienople, Pa.) as described previously (Coughenour L. L., Cordon, J. J., J. Pharmacol. Exp. Ther., 1997;280:584-592) and stored at −80° C. On the day of the assay, pellets were resuspended in 35 mL of assay buffer at pH 7.4 using a Polytron setting 6. After incubation at 37° C. for 30 minutes in a shaking water bath, the homogenate was centrifuged 40,000×g for 10 minutes at 4° C. The pellets were resuspended in fresh buffer and centrifuged 3 more times before final suspension for use in the assay.
[^3H]Ifenprodil Binding. Triplicate incubations were carried out in a volume of 0.5 mL in 1.3 mL polypropylene tubes (Marsh Biomedical Products Inc., Rochester, N.Y.) for 2 hours at room temperature. Incubations contained test agents, membranes (100-200 μg protein) and 4 nM[^3H]-ifenprodil in 20 mM HEPES-KOH buffer, pH 7.4 (assay buffer). Assays were started by addition of the membranes. Bound radioligand was separated by filtration under reduced pressure using a Tomtec Mach II, 96-well cell harvester (Tomtec Inc., Orange, Colo.). Filtration was through Whatman GF/B glass fiber filters (Whatman Ltd, Maidstone, England), which had been soaked for at least 15 minutes in 0.3% polyethylenimine and allowed to air dry. The filters were rinsed with 3 mL of ice cold assay buffer within 6 seconds. Air was allowed to pass through the filters for an additional 10 seconds to remove residual moisture. The filter mat was supported on a cold (−20° C.) teflon support, and filters from individual wells were separated and placed in Mini Poly-Q vials (Beckman Instruments Inc., Fullerton, Calif.) and filled with 4 mL of scintillation cocktail (Beckman Ready Protein^+). Radioactivity retained on the filter was determined by liquid scintillation spectrophotometry. Nonspecific binding was defined as the binding in the presence of 1 mM ifenprodil. Specific binding was 90%.
Data analysis. Binding curves were statistically analyzed for a best one or two site competition fit using GraphPad Prism software (GraphPad Software Inc., San Diego, Calif.). The normalized data was fit by nonweighted nonlinear regression to either [formula]
Control data was entered as 100%, and no parameters were constrained. Inhibition curves were compared by ANOVA with post test comparisons of the logIC50 using Dunnett's multiple comparisons post test or Student's nonpaired, two-tailed t-test (GraphPad InStat software).

SMILES | melting point [°C] | IC50 [1] [nM]
O=c1[nH]c2ccc([C@H]3CC[C@H](N(CCCc4ccc(F)cc4)CC4CC4)CC3)cc2o1 (as salt: HCl) [Example 30, 6-(trans-4-{Cyclopropylmethyl-[3-(4-fluorophenyl)propyl]amino}cyclohexyl)-3H-benzoxazol-2-one] | 221 to 225 | –
O=c1[nH]c2ccc([C@H]3CC[C@H](N(CCCc4ccc(F)cc4)Cc4ccoc4)CC3)cc2o1 (as salt: HCl) [Example 31, 6-(trans-4-{[3-(4-Fluorophenyl)propyl]furan-3-ylmethylamino}cyclohexyl)-3H-benzoxazol-2-one] | 225 to 227 | –
C=CCN(CCCc1ccc(F)cc1)[C@H]1CC[C@H](c2ccc3[nH]c(=O)oc3c2)CC1 (as salt: HCl) [Example 32, 6-(trans-4-{Allyl-[3-(4-fluorophenyl)propyl]amino}cyclohexyl)-3H-benzoxazol-2-one] | 224 to 230 | –
CC(C)CN(CCCc1ccc(F)cc1)[C@H]1CC[C@H](c2ccc3[nH]c(=O)oc3c2)CC1 (as salt: HCl) [Example 33, 6-(trans-4-{[3-(4-Fluorophenyl)propyl]isobutylamino}cyclohexyl)-3H-benzoxazol-2-one] | 199 to 201 | –
NC(=O)CN(CCCc1ccc(F)cc1)[C@H]1CC[C@H](c2ccc3[nH]c(=O)oc3c2)CC1 (as salt: HCl) [Example 34, 2-{[3-(4-Fluorophenyl)propyl]-[4-(2-oxo-2,3-dihydro-benzoxazol-6-yl)-cyclohexyl]amino}acetamide] | 266 to 270 | –
NCCN(CCCc1ccc(F)cc1)[C@H]1CC[C@H](c2ccc3[nH]c(=O)oc3c2)CC1 (as salt: HCl) [Example 35, 6-(trans-4-{(2-Aminoethyl)-[3-(4-fluorophenyl)propyl]amino}cyclohexyl)-3H-benzoxazol-2-one] | 161 to 169 | –
CN(CCCc1ccc(F)c(F)c1)[C@H]1CC[C@H](c2ccc3[nH]c(=O)oc3c2)CC1 (as salt: HCl) [Example 40b, 6-(trans-4-{[3-(3,4-Difluorophenyl)propyl]methylamino}cyclohexyl)-3H-benzoxazol-2-one] | 224 to 227 | –
CN(CCCc1ccc(Cl)cc1F)[C@H]1CC[C@H](c2ccc3[nH]c(=O)oc3c2)CC1 (as salt: HCl) [Example 45b, 6-(trans-4-{[3-(4-Chloro-2-fluorophenyl)propyl]methylamino}cyclohexyl)-3H-benzoxazol-2-one] | 274 to 275 | –
CN(CCCc1ccccc1F)[C@H]1CC[C@H](c2ccc3[nH]c(=O)oc3c2)CC1 (as salt: HCl) [Example 46b, 6-(trans-4-{[3-(2-Fluorophenyl)propyl]methylamino}cyclohexyl)-3H-benzoxazol-2-one] | 242 to 246 | –
CN(CCCc1cccc(F)c1)[C@H]1CC[C@H](c2ccc3[nH]c(=O)oc3c2)CC1 (as salt: HCl) [Example 47b, 6-(trans-4-{[3-(3-Fluorophenyl)propyl]methylamino}cyclohexyl)-3H-benzoxazol-2-one] | 210 to 238 | –
Cc1c(F)cccc1CCCN(C)[C@H]1CC[C@H](c2ccc3[nH]c(=O)oc3c2)CC1 (as salt: HCl) [Example 48b, 6-(trans-4-{[3-(3-Fluoro-2-methylphenyl)propyl]methylamino}cyclohexyl)-3H-benzoxazol-2-one] | 264 to 269 | –
CN(CCCC1CCCCC1)[C@H]1CC[C@H](c2ccc3[nH]c(=O)oc3c2)CC1 (as salt: HCl) [Example 49b, 6-{trans-4-[(3-Cyclohexylpropyl)methylamino]cyclohexyl}-3H-benzoxazol-2-one] | 247 to 251 | –
CN(CCCc1ccsc1)[C@H]1CC[C@H](c2ccc3[nH]c(=O)oc3c2)CC1 (as salt: HCl) [Example 52b, 6-[trans-4-{[3-(3-Thiophen-3-yl)propyl]methylamino}cyclohexyl)-3H-benzoxazol-2-one] | 246 to 248 | –
CC(C)c1ccc(CCCN(C)[C@H]2CC[C@H](c3ccc4[nH]c(=O)oc4c3)CC2)cc1 (as salt: HCl) [Example 53, 6-(trans-4-{[3-(4-Isopropylphenyl)propyl]methylamino}cyclohexyl)-3H-benzoxazol-2-one] | 179 to 181 | –
CN(CCCc1ccc(Cl)cc1Cl)[C@H]1CC[C@H](c2ccc3[nH]c(=O)oc3c2)CC1 (as salt: HCl) [Example 54, 6-(trans-4-{[3-(2,4-Dichlorophenyl)propyl]methylamino}cyclohexyl)-3H-benzoxazol-2-one] | 273 to 279 | –
CN(CCCc1ccc(F)c(F)c1F)[C@H]1CC[C@H](c2ccc3[nH]c(=O)oc3c2)CC1 (as salt: HCl) [Example 55, 6-(trans-4-{[3-(2,3,4-Trifluorophenyl)propyl]methylamino}cyclohexyl)-3H-benzoxazol-2-one] | 269 to 274 | –
CC(C)Cc1ccc(CCCN(C)[C@H]2CC[C@H](c3ccc4[nH]c(=O)oc4c3)CC2)cc1 (as salt: HCl) [Example 56, 6-(trans-4-{[3-(4-Isobutylphenyl)propyl]methylamino}cyclohexyl)-3H-benzoxazol-2-one] | 162 to 165 | –
CN(CCCc1c(F)cc(F)cc1F)[C@H]1CC[C@H](c2ccc3[nH]c(=O)oc3c2)CC1 (as salt: HCl) [Example 57, 6-(trans-4-{[3-(2,4,6-Trifluorophenyl)propyl]methylamino}cyclohexyl)-3H-benzoxazol-2-one] | 235 to 238 | –
CN(CCCc1nccs1)[C@H]1CC[C@H](c2ccc3[nH]c(=O)oc3c2)CC1 (as salt: HCl) [Example 59, 6-{trans-4-[Methyl(3-thiazol-2-ylpropyl)amino]cyclohexyl}-3H-benzoxazol-2-one] | 237 to 239 | –
CN(CCN(C)[C@H]1CC[C@H](c2ccc3[nH]c(=O)oc3c2)CC1)c1ccccc1 (as salt: HCl) [Example 60, 6-(trans-4-{Methyl-[2-(Methylphenylamino)ethyl]amino}cyclohexyl)-3H-benzoxazol-2-one] | 240 to 243 | –
O=c1[nH]c2ccc([C@H]3CC[C@H](NCCCc4ccc(F)cc4)CC3)cc2[nH]1 (as salt: HCl) [Example 62, 5-{trans-4-[3-(4-Fluorophenyl)propylamino]cyclohexyl}-1,3-dihydrobenzoimidazol-2-one] | 336 to 339 | –
Cc1cc2[nH]c(=O)oc2cc1[C@H]1CC[C@H](N(C)CCCc2ccc(F)cc2)CC1 (as salt: salt) [Example 64, 6-(4-{[3-(4-Fluorophenyl)propyl]methyl-amino}cyclohexyl)-5-methyl-3H-benzoxazol-2-one] | 264 to 267 | –
COc1cc2[nH]c(=O)oc2cc1[C@H]1CC[C@H](N(C)CCCc2ccc(F)cc2)CC1 (as salt: salt) [Example 65, 6-(trans-4-{[3-(4-Fluorophenyl)propyl]methylamino}cyclohexyl)-5-methoxy-3H-benzoxazol-2-one] | 239 to 242 | –
C[C@H](N[C@H]1CC[C@H](c2ccc3[nH]c(=O)oc3c2)CC1)[C@H](O)c1ccccc1 (stereo in doubt) (as salt: HCl) [Example 12, 6-{trans-4-[(1S,2R)-2-Hydroxy-1-methyl-2-phenylethylamino]cyclohexyl}-3H-benzoxazol-2-one] | 251 to 256 | –
O=c1[nH]c2ccc(C3=CCC(NCCCc4ccccc4)CC3)cc2o1 (stereo not shown) [Example 6, 6-[4-(3-Phenylpropylamino)cyclohex-1-enyl]-3H-benzoxazol-2-one] | 293 to 295 | 9
CC(CCN(C)[C@H]1CC[C@H](c2ccc3[nH]c(=O)oc3c2)CC1)c1ccccc1 (stereo partly drawn) [Example 37b, 6-[trans-4-(Methyl-3-phenylbutylamino)cyclohexyl]-3H-benzoxazol-2-one] | 61 to 70 | 32
